{"source": "paper PMC6691772", "about": "“Novel phthalimide based analogues: design, synthesis, biological evaluation, and molecular docking studies” (Journal of Enzyme Inhibition and Medicinal Chemistry, 2019)", "key": {"A. fumigatus RCMB 002568 [1]": {"system": "A. fumigatus RCMB 002568", "assay": "Agar well diffusion, inhibition zone", "type": "cell-based, Aspergillus fumigatus", "design": "key to Mean diameter of inhibition zone (Mean ± SEM): –: -: No activity under the screening conditions", "conditions": "mean of three values"}, "[2]": {"system": "P. aeruginosa RCMB 010043", "assay": "Agar well diffusion, inhibition zone", "type": "cell-based, Pseudomonas aeruginosa", "design": "key to Mean diameter of inhibition zone (Mean ± SEM): –: -: No activity under the screening conditions", "conditions": "mean of three values"}, "C. albicans RCMB 005036": {"system": "C. albicans RCMB 005036", "assay": "Agar well diffusion, inhibition zone", "type": "cell-based, Candida albicans", "design": "key: –: -: No activity under the screening conditions", "conditions": "1 mg/mL, mean of three values"}, "E. coli RCMB 010052 [3]": {"system": "E. coli RCMB 010052", "assay": "Agar well diffusion, inhibition zone", "type": "cell-based, Escherichia coli", "design": "key to Mean diameter of inhibition zone (Mean ± SEM): –: -: No activity under the screening conditions", "conditions": "mean of three values"}, "B. subtilis RCMB 010067 [4]": {"system": "B. subtilis RCMB 010067", "assay": "Agar well diffusion, inhibition zone", "type": "cell-based, Bacillus subtilis", "design": "key to Mean diameter of inhibition zone (Mean ± SEM): –: -: No activity under the screening conditions", "conditions": "mean of three values"}, "[5]": {"system": "(THLE-2) normal liver cell line", "assay": "Cytotoxic screening on normal liver cells", "type": "cell-based", "conditions": "Homo sapiens, mean of three values, read-out: IC50 (Mean ± SEM)"}, "[6]": {"system": "tested bacterial and fungal strains", "assay": "Antimicrobial screening, summary over all tested strains", "type": "cell-based", "conditions": "1 mg/mL", "description": "All bacterial and fungal strains were received from the culture collection of the Regional Center for Mycology and Biotechnology (RCMB), Al-Azhar University, Cairo, Egypt. All target derivatives were screened in-vitro opposite to various kinds of bacteria, Gram-positive bacteria (Streptococcus pneumoniae and Bacillus subtilis) and Gram-negative bacteria (Pseudomonas aeruginosa and Escherichia coli) and for their Antifungal activities against Aspergillus fumigatus and Candida albicans, respectively. Ampicillin and gentamycin were used as standard antibacterial drugs while amphotericin B was used as reference antifungal drug. The diameter of inhibition zone (mm) was measured for the biological activity using the diffusion technique. The promising compounds were further investigated to evaluate their antimicrobial activity expressed in terms of minimum inhibitory concentration (MIC) using the modified agar well diffusion method.\nThe newly prepared targets were subjected for in-vitro antibacterial screening against Gram-positive bacteria (Streptococcus pneumonia and Bacillus subtilis) and Gram-negative bacteria (Pseudomonas aeruginosa and Escherichia coli). […] The compounds’ solutions of concentrations (1 mg/mL) were evaluated against the different microorganism’s and the inhibition zone (IZ) used diameter in mm for the biologically activity (agar well diffusion method)."}, "[7]": {"system": "human liver cancer cell line (HepG-2)", "assay": "MTT anticancer assay", "type": "cell-based", "conditions": "HepG2, HePG-2 cancer liver cell line, mean of three values, read-out: IC50 (Mean ± SEM)"}, "S. pneumonia RCMB 010010 [8]": {"system": "S. pneumonia RCMB 010010", "assay": "Agar well diffusion, inhibition zone", "type": "cell-based, Streptococcus pneumoniae", "design": "key to Mean diameter of inhibition zone (Mean ± SEM): –: -: No activity under the screening conditions", "conditions": "mean of three values"}, "[9]": {"system": "P. aeruginosa RCMB 010043", "assay": "Minimum inhibitory concentration, modified agar well diffusion", "type": "cell-based", "conditions": "Pseudomonas aeruginosa, RCMB010043, mean of three values, read-out: MIC (Mean ± SEM)"}, "E. coli DNA gyrase B": {"target": "E. coli DNA gyrase B (Escherichia coli, UniProt P0AES6)", "assay": "In-vitro enzyme assay on DNA gyrase B", "type": "biochemical"}, "A. fumigatus RCMB 002568 [10]": {"system": "A. fumigatus RCMB 002568", "assay": "Minimum inhibitory concentration, modified agar well diffusion", "type": "cell-based", "conditions": "Aspergillus fumigatus, RCMB002568, mean of three values, read-out: MIC (Mean ± SEM)"}, "B. subtilis RCMB 010067 [11]": {"system": "B. subtilis RCMB 010067", "assay": "Minimum inhibitory concentration, modified agar well diffusion", "type": "cell-based", "conditions": "Bacillus subtilis, RCMB010067, mean of three values, read-out: MIC (Mean ± SEM)"}, "S. pneumonia RCMB 010010 [12]": {"system": "S. pneumonia RCMB 010010", "assay": "Minimum inhibitory concentration, modified agar well diffusion", "type": "cell-based", "conditions": "Streptococcus pneumoniae, RCMB010010, mean of three values, read-out: MIC (Mean ± SEM)"}, "VEGFR-2": {"target": "VEGFR-2 (Homo sapiens, UniProt P35968)", "sequence (P35968 20-1356)": "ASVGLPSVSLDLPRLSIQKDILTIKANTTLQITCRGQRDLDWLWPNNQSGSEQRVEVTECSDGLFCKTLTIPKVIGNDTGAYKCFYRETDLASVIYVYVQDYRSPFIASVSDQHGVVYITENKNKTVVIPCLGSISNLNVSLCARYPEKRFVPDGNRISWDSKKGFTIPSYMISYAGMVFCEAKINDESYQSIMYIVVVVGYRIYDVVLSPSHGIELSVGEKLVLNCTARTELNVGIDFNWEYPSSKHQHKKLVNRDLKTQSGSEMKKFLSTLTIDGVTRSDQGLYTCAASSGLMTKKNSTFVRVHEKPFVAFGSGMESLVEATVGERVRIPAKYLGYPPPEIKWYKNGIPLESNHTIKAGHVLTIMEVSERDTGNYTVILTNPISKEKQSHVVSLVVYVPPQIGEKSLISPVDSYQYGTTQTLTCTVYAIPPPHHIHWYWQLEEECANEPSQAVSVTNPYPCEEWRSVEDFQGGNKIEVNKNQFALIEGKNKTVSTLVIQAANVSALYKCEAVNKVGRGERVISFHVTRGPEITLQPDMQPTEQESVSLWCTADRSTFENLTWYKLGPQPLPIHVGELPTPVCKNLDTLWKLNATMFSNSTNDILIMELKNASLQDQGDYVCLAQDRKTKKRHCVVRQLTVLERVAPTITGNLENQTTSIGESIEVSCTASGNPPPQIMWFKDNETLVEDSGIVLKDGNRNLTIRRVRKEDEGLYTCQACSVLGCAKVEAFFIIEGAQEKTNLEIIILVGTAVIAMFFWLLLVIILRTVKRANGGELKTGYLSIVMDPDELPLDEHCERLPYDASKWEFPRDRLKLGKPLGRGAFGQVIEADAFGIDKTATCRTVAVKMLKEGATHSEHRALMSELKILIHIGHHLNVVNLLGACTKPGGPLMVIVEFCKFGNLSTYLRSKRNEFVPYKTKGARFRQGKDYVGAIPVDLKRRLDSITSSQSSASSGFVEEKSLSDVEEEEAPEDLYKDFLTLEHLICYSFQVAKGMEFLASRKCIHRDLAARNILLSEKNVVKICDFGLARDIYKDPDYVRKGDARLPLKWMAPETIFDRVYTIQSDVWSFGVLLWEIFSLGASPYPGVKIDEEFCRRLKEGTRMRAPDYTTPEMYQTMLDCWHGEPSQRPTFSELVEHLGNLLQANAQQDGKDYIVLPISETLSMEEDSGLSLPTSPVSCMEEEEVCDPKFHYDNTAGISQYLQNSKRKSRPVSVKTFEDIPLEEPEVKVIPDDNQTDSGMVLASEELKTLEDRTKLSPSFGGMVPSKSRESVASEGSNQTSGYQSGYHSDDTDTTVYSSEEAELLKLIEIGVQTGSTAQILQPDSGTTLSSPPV", "assay": "In-vitro enzyme assay on VEGFR-2", "type": "biochemical", "conditions": "read-out: IC50 (Mean ± SEM)"}, "E. coli RCMB 010052 [13]": {"system": "E. coli RCMB 010052", "assay": "Minimum inhibitory concentration, modified agar well diffusion", "type": "cell-based", "conditions": "Escherichia coli, RCMB010052, mean of three values, read-out: MIC (Mean ± SEM)"}}}
{"molecule": "Nc1c(C(=O)c2ccccc2)cnc2c(N=NN3C(=O)c4ccccc4C3=O)c(O)nn12", "note": "[Compound 14, 2-[(7-Amino-6-benzoyl-2-hydroxypyrazolo[1,5-a]pyrimidin-3-yl)diazenyl]-1H-isoindole-1,3(2H)-dione]", "values": [{"measurement": "Mean diameter of inhibition zone (Mean ± SEM)", "setting": "A. fumigatus RCMB 002568 [1]; 1 mg/mL", "result": "–"}, {"measurement": "Mean diameter of inhibition zone (Mean ± SEM)", "setting": "[2]; 1 mg/mL", "result": "–"}, {"measurement": "Mean diameter of inhibition zone (Mean ± SEM)", "setting": "C. albicans RCMB 005036", "result": "–"}, {"measurement": "Mean diameter of inhibition zone (Mean ± SEM)", "setting": "E. coli RCMB 010052 [3]; 1 mg/mL", "result": "–"}, {"measurement": "Mean diameter of inhibition zone (Mean ± SEM)", "setting": "B. subtilis RCMB 010067 [4]; 1 mg/mL", "result": "–"}, {"measurement": "IC50", "setting": "[5]", "result": "725.44 ± 0.15", "unit": "µg/mL"}, {"measurement": "antimicrobial activity, overall", "setting": "[6]", "result": "no antimicrobial activities"}, {"measurement": "IC50", "setting": "[7]", "result": "34.8 ± 1.26", "unit": "µg/mL"}, {"measurement": "Mean diameter of inhibition zone (Mean ± SEM)", "setting": "S. pneumonia RCMB 010010 [8]; 1 mg/mL", "result": "–"}, {"measurement": "melting point", "result": "295 to 297", "unit": "°C"}]}
{"molecule": "NC1=NNC(=O)C1=NNN1C(=O)c2ccccc2C1=O", "note": "[Compound 4, 2-(2-(3-Amino-5-oxo-1H-pyrazol-4(5H)-ylidene)hydrazinyl)isoindoline-1,3-dione]", "values": [{"measurement": "MIC", "setting": "[9]", "result": "0.98 ± 0.02", "unit": "µg/mL"}, {"measurement": "zone of inhibition at 1000 µg/mL", "setting": "A. fumigatus RCMB 002568 [1]; Aspergillus fumigatus, RCMB002568, 1 mg/mL, read-out: Mean diameter of inhibition zone (Mean ± SEM)", "result": "23.1 ± 0.5", "unit": "mm"}, {"measurement": "zone of inhibition at 1000 µg/mL", "setting": "[2]; Pseudomonas aeruginosa, RCMB010043, 1 mg/mL, read-out: Mean diameter of inhibition zone (Mean ± SEM)", "result": "19.2 ± 0.5", "unit": "mm"}, {"measurement": "IC50", "setting": "E. coli DNA gyrase B", "result": "340 ± 630", "unit": "nM"}, {"measurement": "Mean diameter of inhibition zone (Mean ± SEM)", "setting": "C. albicans RCMB 005036", "result": "–"}, {"measurement": "MIC", "setting": "A. fumigatus RCMB 002568 [10]", "result": "1.95 ± 0.28", "unit": "µg/mL"}, {"measurement": "MIC", "setting": "B. subtilis RCMB 010067 [11]", "result": "0.98 ± 0.42", "unit": "µg/mL"}, {"measurement": "MIC", "setting": "S. pneumonia RCMB 010010 [12]", "result": "1.95 ± 0.23", "unit": "µg/mL"}, {"measurement": "zone of inhibition at 1000 µg/mL", "setting": "E. coli RCMB 010052 [3]; Escherichia coli, RCMB010052, 1 mg/mL, read-out: Mean diameter of inhibition zone (Mean ± SEM)", "result": "24.5 ± 0.3", "unit": "mm"}, {"measurement": "zone of inhibition at 1000 µg/mL", "setting": "B. subtilis RCMB 010067 [4]; Bacillus subtilis, RCMB010067, 1 mg/mL, read-out: Mean diameter of inhibition zone (Mean ± SEM)", "result": "25.1 ± 0.5", "unit": "mm"}, {"measurement": "IC50", "setting": "[5]", "result": "874.31 ± 0.22", "unit": "µg/mL"}, {"measurement": "IC50", "setting": "VEGFR-2", "result": 90, "unit": "nM"}, {"measurement": "IC50", "setting": "[7]", "result": "4.22 ± 1.04", "unit": "µg/mL"}, {"measurement": "MIC", "setting": "E. coli RCMB 010052 [13]", "result": "0.49 ± 0.39", "unit": "µg/mL"}, {"measurement": "zone of inhibition at 1000 µg/mL", "setting": "S. pneumonia RCMB 010010 [8]; Streptococcus pneumoniae, RCMB010010, 1 mg/mL, read-out: Mean diameter of inhibition zone (Mean ± SEM)", "result": "23 ± 0.4", "unit": "mm"}, {"measurement": "melting point", "result": "289 to 290", "unit": "°C"}]}
